Reference: US5125099A, “Obtaining heteropolysaccharide-producing microorganism and the microorganism agrobacterium radiobacter NCIB 40018” (Shell Internationale Research Maatschappij B.V., priority 1988, dated 1992)
“Also recorded” adds a separate entry of the source. Where two headings read alike, the source gives them in different places.

What was measured:
[1] = system: GBP2; experiment: Effect of unlabelled glucose analogues on binding of [14C]glucose to GBP2, equilibrium dialysis; set-up: species or system Agrobacterium radiobacter; details: for [14C]glucose bound GBP2: 0.5 nmol pure protein, 3 nmol [14C]glucose plus 120 nmol unlabelled analogue, 30 h, 4° C.; for Effect on binding of glucose to GBP2 (in words): competition with [14C]glucose in vitro
Experimental: (§1) The capacity of glucose analogues to reduce the extent of binding of D-[U-^14 C]glucose to pure proteins was determined by modifying the assay procedure as follows. One chamber of each cell contained 0.5 nmol pure protein in 0.3 ml bis-Tris, pH 6.8, and the other chamber was loaded with 0.3 ml of buffer containing 3 nmol D-[U-^14 C]glucose [85 mCi mmol^-1 (3.2 GBq mmol )] plus 120 nmol of an unlabelled glucose analogue. The quantity of [^14 C]glucose that bound to the proteins in the presence and absence of unlabelled glucose analogues was determined after 30 h incubation.

[2] = system: A. radiobacter strain AR18; experiment: Effect of glucose analogues on [14C]glucose uptake by strain AR18 grown under glucose limitation; assay type: cell-based, Agrobacterium radiobacter; details: for activity at 10000 µM: Agrobacterium radiobacter, AR18, pH 7, unlabelled sugars 10 mM, [14C]glucose 250M, glucose-limited culture D = 0.045 h^-1, control rate 72 nmol min^-1 (mg dry wt)^-1
Experimental: (§2) Measurement of glucose uptake. […] Assays were carried out in an open-topped Rank oxygen electrode vessel containing 1 ml 20 mM HEPES/KOH buffer, pH 7.0, and 1 mg dry wt cells. The contents of the vessel were maintained at 30° C. and mixed continuously using a magnetic stirrer. […] Samples (50 ul) of the reaction mixture were withdrawn at 15 s intervals and the cells were collected on nitrocellulose filters of 0.45 uM pore size (2.5 cm dia.; Sartorius) by means of a manifold connected to a vacuum line. The filters were washed immediately using 3 ml 20 mM HEPES, pH 7.0, dried under an infra-red lamp and then immersed in 3 ml of Fisofluor 3 scintillant (Fisons Ltd.).

[3] = system: A. radiobacter strain AR9; experiment: Effect of glucose analogues on [14C]glucose uptake by strain AR9 grown under glucose limitation; assay type: cell-based, Agrobacterium radiobacter; details: for activity at 10000 µM: Agrobacterium radiobacter, AR9, pH 7, unlabelled sugars 10 mM, [14C]glucose 250M, glucose-limited culture D = 0.045 h^-1, control rate 63 nmol min^-1 (mg dry wt)^-1
Experimental: as §2

[4] = system: GBP1; experiment: Effect of unlabelled glucose analogues on binding of [14C]glucose to GBP1, equilibrium dialysis; set-up: species or system Agrobacterium radiobacter; details: for [14C]glucose bound GBP1: 0.5 nmol pure protein, 3 nmol [14C]glucose plus 120 nmol unlabelled analogue, 30 h, 4° C.; for Effect on binding of glucose to GBP1 (in words): competition with [14C]glucose in vitro
Experimental: as §1

[5] = system: whole cells of A. radiobacter; experiment: [14C]glucose uptake by whole cells grown under glucose limitation; assay type: cell-based, Agrobacterium radiobacter NCIB 11883; details: for Effect on rate of [14C]glucose uptake by whole cells (in words): unlabelled analogue at 40:1 molar excess, glucose-limited cells; for Glucose uptake rate after pre-incubation with respiratory substrate (in words): 10 mM, pre-incubated before addition of [14C]glucose
Experimental: Organism and growth conditions. Agrobacterium radiobacter NCIB 11883 was grown at 30° C. in continuous culture (D=0.045 h^-1) under glucose limitation using a chemically defined medium (Linton et al., 1987) supplemented with glucose (4 gl^-1), ammonium sulfate (3 gl^-1) and nitrilotriacetic acid (0.142 gl^-1). The organism was grown in an LH Series 500 chemostat of 2 l working volume at a steady-state biomass density of 2.1 g dry wt 1^-1.
Measurement of glucose uptake. Rates of glucose uptake were determined by measuring the incorporation of D-[U-^14 C]glucose into whole cells over a period of 60 s. Assays were carried out in an open-topped Rank oxygen electrode vessel containing 1 ml 20 mM HEPES/KOH buffer, pH 7.0, and 1 mg dry wt cells. The contents of the vessel were maintained at 30° C. and mixed continuously using a magnetic stirrer. Assays were started by adding D-[U-^14 C]glucose [2 mCi mmol^-1 (74 MBq mmol^-1; 0.5 uCi (18.5 KBl)] to give a final concentration of 250 uM. Samples (50 ul) of the reaction mixture were withdrawn at 15 s intervals and the cells were collected on nitrocellulose filters of 0.45 uM pore size (2.5 cm dia.; Sartorius) by means of a manifold connected to a vacuum line. The filters were washed immediately using 3 ml 20 mM HEPES, pH 7.0, dried under an infra-red lamp and then immersed in 3 ml of Fisofluor 3 scintillant (Fisons Ltd.). The extent of incorporation of [^14 C]glucose into the cells was determined by counting the radioactivity on the filters using a Hewlett Packard Tri-Carb liquid scintillation counter (80-85% efficiency).
In order to measure glucose uptake rates at low concentrations of substrate (1-5 uM) the cell density was reduced to 0.01 mg ml^-1, the specific activity of the [^14 C]glucose was increased to 84 mCi mmol^-1 (3.2 Gbq mmol^-1) and the rate of incorporation of ^14 C-label into cells was measured over a period of 35 s.
The substrate specificity of the transport system was investigated by determining the extent to which unlabelled glucose analogues (10 mM) reduced the rate of uptake of [^14 C]glucose (250 uM). Cell suspensions were incubated with analogues for 5 s prior to addition of [^14 C]glucose.

[6] = system: A. radiobacter strain AR18; experiment: [14C]glucose uptake by strain AR18 grown under ammonia limitation; assay type: cell-based; details: Agrobacterium radiobacter, AR18, pH 7; ammonia-limited growth, forty-fold molar excess over [14C]glucose; read-out: Reduction of rate of glucose uptake by strain AR18
Experimental: (§4) Measurement of glucose uptake. Rates of glucose uptake were determined by measuring the incorporation of D-[U-^14 C]glucose into whole cells over a period of 60 s. Assays were carried out in an open-topped Rank oxygen electrode vessel containing 1 ml 20 mM HEPES/KOH buffer, pH 7.0, and 1 mg dry wt cells. The contents of the vessel were maintained at 30° C. and mixed continuously using a magnetic stirrer. Assays were started by adding D-[U-^14 C]glucose [2 mCi mmol^-1 (74 MBq mmol^-1 ; 0.5 uCi (18.5 KBl)] to give a final concentration of 250 uM. Samples (50 ul) of the reaction mixture were withdrawn at 15 s intervals and the cells were collected on nitrocellulose filters of 0.45 uM pore size (2.5 cm dia.; Sartorius) by means of a manifold connected to a vacuum line. The filters were washed immediately using 3 ml 20 mM HEPES, pH 7.0, dried under an infra-red lamp and then immersed in 3 ml of Fisofluor 3 scintillant (Fisons Ltd.). The extent of incorporation of [^14 C]glucose into the cells was determined by counting the radioactivity on the filters using a Hewlett Packard Tri-Carb liquid scintillation counter (80-85% efficiency). Glucose uptake rates were measured in triplicate for each batch of cells and the standard errors never exceeded 10% of the mean values. […]

[7] = system: A. radiobacter strain AR9; experiment: [14C]glucose uptake by strain AR9 grown under ammonia limitation; assay type: cell-based; details: Agrobacterium radiobacter, AR9, pH 7; ammonia-limited growth, forty-fold molar excess over [14C]glucose; read-out: Reduction of rate of glucose uptake by strain AR9
Experimental: as §4

[8] = biological target: GBP1; experiment: Binding of [14C]glucose to pure GBP1, equilibrium dialysis, Scatchard analysis; set-up: species or system Agrobacterium radiobacter
Experimental: (§3) Determination of binding constants using equilibrium dialysis. This was carried out at 4° C. using an eight-cell rotating module (Hoefer Scientific Instruments, San Fransisco, Calif., U.S.A.). Each cell was divided into two chambers of 0.5 ml volume using a dialysis membrane (Mr cut-off=6-8000). Pure protein (0.5 nmol) was added to one chamber of each cell in 0.3 ml bis-Tris, pH 6.8. Each of the opposing chambers was loaded with 0.3 ml bis-Tris (0.3 ml) containing D-[U-^14 C]glucose [270 mCi mmol^-1 (10 GBq mmol^-1)], the concentration of which was varied over an appropriate range. The module was rotated at 10 rev min^-1 for 30 h (by which time equilibrium had been attained) and samples (50 ul) were taken in triplicate from each chamber and counted in 3 ml Fisofluor 2 (Fisons Ltd.). The data were analyzed according to the method of Scatchard (1949).

[9] = system: third protein (Mr 30500), BP3; experiment: Binding of [14C]glucose to the third periplasmic protein (BP3), equilibrium dialysis; set-up: species or system Agrobacterium radiobacter
Experimental: as §3

[10] = biological target: GBP2; experiment: Binding of [14C]glucose to pure GBP2, equilibrium dialysis, Scatchard analysis; set-up: species or system Agrobacterium radiobacter
Experimental: as §3

[11] = system: whole cells of A. radiobacter; experiment: Capacity of whole cells to accumulate [14C]glucose; assay type: cell-based, Agrobacterium radiobacter NCIB 11883
Experimental: The capacity of A. radiobacter to accumulate glucose was determined by incubating cell suspensions (1 mg dry wt ml^-1) with D-[U-^14 C]glucose [84 mCi mmol^-1 (3.2 Gbq mmol^-1); 20M initial concentration). Samples (100 ul) of the suspension were withdrawn 10s after adding the glucose and the cells were collected on nitrocellulose filters (0.45 um pore size) using vacuum filtration. The filters were washed immediately using 3 ml buffer and immersed in 20 ml boiling water. Aqueous extracts prepared from four filters were pooled, lyophilized and the residue dissolved in 2 ml water. The glucose content of the cells was determined using liquid scintillation counting following separation of [^14 C]glucose from other labelled metabolites present in the extracts using paper chromatography. Samples of the filtrate plus washings were also counted in order to determine the extracellular concentration of glucose at the time of sampling.

[12] = glucose-limited culture, unlabelled sugar 10 mM

SMILES | [14C]glucose bound GBP2 [1] | Effect on binding of glucose to GBP2 (in words) [1] | activity at 10000 µM [2] | activity at 10000 µM [3] | [14C]glucose bound GBP1 [4] | Effect on binding of glucose to GBP1 (in words) [4] | further results
O=CC[C@@H](O)[C@H](O)[C@H](O)CO [2-deoxy-D-glucose] | 98 % control value | did not affect | 93% | 71% | 96 % control value | did not affect | Effect on binding of glucose to GBP2 (in words) ([1]; listed as 2-Deoxy-D-glucose): had no effect; Effect on rate of glucose uptake by strain AR18 (in words) [2, 12]: reduced the rate of glucose uptake to a relatively small extent; Effect on rate of glucose uptake by strain AR9 (in words) [3, 12]: reduced the rate of glucose uptake to a relatively small extent; Effect on binding of glucose to GBP1 (in words) ([4]; listed as 2-Deoxy-D-glucose): had no effect; Effect on rate of [14C]glucose uptake by whole cells (in words) [5]: none of these unlabelled analogues appreciably reduced; also recorded: failed to reduce significantly
CO[C@H]1[C@H](O)[C@@H](CO)OC(O)[C@@H]1O (stereo partly drawn) [3-O-methyl-D-glucose] | 103 % control value | did not affect | 111% | 99% | 100 % control value | did not affect | Effect on rate of [14C]glucose uptake by whole cells (in words) [5]: none of these unlabelled analogues appreciably reduced; also recorded: failed to reduce significantly
OC1O[C@H](CCl)[C@@H](O)[C@H](O)[C@H]1O (stereo partly drawn) [6-chloro-6-deoxy-D-glucose] | 60 % control value | variably decreased; also recorded: significantly reduced | 8% | 33% | 0 % control value | variably decreased; also recorded: significantly reduced | –
C[C@@H](O)[C@@H](O)[C@H](O)[C@@H](O)C=O [6-deoxy-D-glucose] | 0 % control value | variably decreased; also recorded: significantly reduced | 27% | 11% | 51 % control value | variably decreased; also recorded: significantly reduced | –
C[C@@H](O)[C@H](O)[C@H](O)[C@@H](O)C=O [D-fucose] | 99 % control value | only effective with GBP1 | 18% | 68% | 31 % control value | only effective with GBP1 | –
O=C[C@H](O)[C@@H](O)[C@@H](O)[C@H](O)CO [D-galactose] | 99 % control value | – | 8% | 75% | 2 % control value | – | Effect on binding of glucose to GBP2 (in words) ([1]; listed as D-Galactose): only effective with GBP1; inhibition at 10000 µM [6]: ~95%; Effect on binding of glucose to GBP1 (in words) ([4]; listed as D-Galactose): only effective with GBP1; inhibition at 10000 µM [7]: ~50%
O=C[C@H](O)[C@@H](O)[C@H](O)[C@H](O)CO [D-glucose] | 4 % control value | – | 4% | 4% | 4 % control value | – | Kd ([8]; as printed in the summary, read-out: KD of D-glucose for GBP1 (summary)): 230 nM; Kd ([8]; equilibrium dialysis, 4° C., pH 6.8, read-out: KD of glucose for GBP1): 230 nM; Binding of D-glucose to the third protein (Mr 30500) (in words) [9]: no binding ability; Kd ([10]; as printed in the summary, read-out: KD of D-glucose for GBP2 (summary)): 70 nM; Kd ([10]; equilibrium dialysis, 4° C., pH 6.8, read-out: KD of glucose for GBP2): 70 nM; Accumulation ratio ([glucose]in/[glucose]out) [11]: > 2000; Accumulation ratio ([glucose]in/[glucose]out) ([11]; 10 s incubation, assuming an intracellular volume of 1-3 ul mg dry wt^-1): 2000-6000; Km ([5]; [14C]glucose varied over the range 1 M-1 mM, whole cells): < 1 µM
O=C[C@H](O)[C@@H](O)[C@H](O)CO [D-xylose] | 2 % control value | significantly reduced | 64% | – | 72 % control value | significantly reduced | –
N#CC(C#N)=NNc1ccc(OC(F)(F)F)cc1 [FCCP, carbonyl cyanide p-trifluoromethoxyphenylhydrazone] | – | – | – | – | – | – | Inhibition of glucose transport ([5]; at 20 M, added 10 s before glucose): approximately 95%
CO[C@H]1O[C@H](CO)[C@@H](O)[C@H](O)[C@H]1O [alpha-1-O-methyl-D-glucose] | 104 % control value | did not affect | 111% | 99% | 99 % control value | did not affect | Effect on rate of [14C]glucose uptake by whole cells (in words) [5]: none of these unlabelled analogues appreciably reduced; Effect on rate of [14C]glucose uptake by whole cells (in words) ([5]; listed as Alpha-1-O-methyl-D-glucose): failed to reduce significantly
CCO [ethanol] | – | – | – | – | – | – | Glucose uptake rate after pre-incubation with respiratory substrate (in words) [5]: did not increase
OCC(O)CO [glycerol] | – | – | – | – | – | – | Glucose uptake rate after pre-incubation with respiratory substrate (in words) [5]: did not increase
